Like-named read-outs stand apart in the source and are kept apart here. One block for each compound: values may come before it.
Tests used:
[1] = cited from earlier work
[2] = tested on: Caco-2 cell monolayers; test: Cellular uptake of [14C]metformin in Caco-2 cell monolayers; assay type: in vitro ADME; conditions: dolutegravir 0.3-100 µM
[3] = molecular target: T1, human PMAT (Homo sapiens, UniProt Q7RTT9); test: Inhibition of probe substrate uptake by PMAT in transfected MDCK-II cells; assay type: in vitro ADME; conditions: dolutegravir ≤100 μM; 10 µM [14C]metformin
T1 sequence (Q7RTT9 1-530): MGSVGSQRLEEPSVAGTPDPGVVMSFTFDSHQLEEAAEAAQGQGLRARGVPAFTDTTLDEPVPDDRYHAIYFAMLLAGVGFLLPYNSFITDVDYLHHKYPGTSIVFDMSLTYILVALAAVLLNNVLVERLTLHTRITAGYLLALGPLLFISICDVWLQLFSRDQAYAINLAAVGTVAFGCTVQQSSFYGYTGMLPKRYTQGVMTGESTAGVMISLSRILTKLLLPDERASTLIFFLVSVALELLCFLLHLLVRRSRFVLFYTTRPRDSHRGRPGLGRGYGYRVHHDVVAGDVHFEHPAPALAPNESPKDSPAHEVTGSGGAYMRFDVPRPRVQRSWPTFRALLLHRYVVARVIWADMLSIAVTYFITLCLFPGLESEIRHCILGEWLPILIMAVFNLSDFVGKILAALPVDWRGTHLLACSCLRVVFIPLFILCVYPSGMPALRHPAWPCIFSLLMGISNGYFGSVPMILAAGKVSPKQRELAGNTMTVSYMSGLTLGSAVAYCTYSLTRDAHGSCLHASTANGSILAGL

[4] = tested on: OCT1; conditions: at 10 μM; cited from earlier work
[5] = molecular target: T2, human OCT3 (Homo sapiens, UniProt O75751); test: Inhibition of probe substrate uptake by OCT3 in transfected MDCK-II cells; assay type: in vitro ADME; conditions: dolutegravir ≤10 μM; 10 µM [14C]metformin
T2 sequence (O75751 1-556): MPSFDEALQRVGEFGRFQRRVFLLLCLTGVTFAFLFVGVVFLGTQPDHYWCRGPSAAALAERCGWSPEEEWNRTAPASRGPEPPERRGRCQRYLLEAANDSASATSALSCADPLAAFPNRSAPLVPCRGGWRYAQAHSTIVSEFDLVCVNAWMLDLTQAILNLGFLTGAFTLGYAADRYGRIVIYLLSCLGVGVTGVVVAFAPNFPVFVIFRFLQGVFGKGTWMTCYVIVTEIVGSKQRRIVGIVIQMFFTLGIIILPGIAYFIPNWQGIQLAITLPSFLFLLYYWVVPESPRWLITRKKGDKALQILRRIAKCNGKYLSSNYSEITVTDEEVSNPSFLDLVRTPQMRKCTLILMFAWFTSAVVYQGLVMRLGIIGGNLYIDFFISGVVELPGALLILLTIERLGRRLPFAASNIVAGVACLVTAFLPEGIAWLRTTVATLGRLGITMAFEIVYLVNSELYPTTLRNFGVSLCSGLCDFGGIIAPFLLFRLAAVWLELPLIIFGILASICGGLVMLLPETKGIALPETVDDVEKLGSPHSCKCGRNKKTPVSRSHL

[6] = tested on: OCT2; conditions: cited from earlier work
[7] = tested on: OCT2; conditions: cited from earlier work; remark: listed apart in the source
[8] = Safety monitoring: drug-related adverse events in healthy subjects; assay type: in vivo, human; conditions: metformin 500 mg q12h alone or with dolutegravir 50 mg q24h or q12h
[9] = assay type: in vivo, human; conditions: for Metformin t(1/2) with vs without co-administration of dolutegravir: dolutegravir 50 mg q24h or q12h
[10] = co-administration of cimetidine

Structure (SMILES): CN/C(=N/CCSCc1nc[nH]c1C)NC#N [Cimetidine]
Increase in metformin AUC [1, 10]: 40% | Increase in metformin peak concentration [1, 10]: 60%

Effect on cellular uptake of metformin in the Caco-2 intestinal cell line [2]: unaffected | Inhibition of [14C]metformin uptake by PMAT [3]: no inhibition | Inhibition of [14C]metformin transport by OCT3 [5]: no inhibition
Structure (SMILES): C[C@@H]1CCO[C@H]2Cn3cc(C(=O)NCc4ccc(F)cc4F)c(=O)c(O)c3C(=O)N12 [Dolutegravir]
Inhibition of OCT1 [4]: 22% | Dolutegravir free fraction [6]: ≥ 1.1% | Cmax ([6]; read-out: Dolutegravir Cmax, twice daily dosing): 13 µM | IC50 ([7]; read-out: IC50 for OCT2): 1900 nM | IC50 ([7]; read-out: OCT2 inhibitory potency, tetraethylammonium as the substrate): 66 nM

Decrease in metformin CL/F ([9]; co-administration of dolutegravir 50 mg q12h): 59% | Decrease in metformin CL/F ([9]; co-administration of dolutegravir 50 mg q24h): 44% | Metformin t(1/2) with vs without co-administration of dolutegravir [9]: unchanged | Metformin t(1/2) with vs without co-administration of dolutegravir ([9]; listed as metformin): similar
Structure (SMILES): CN(C)C(=N)N=C(N)N [Metformin]
Tolerability [8]: well tolerated | Fraction of drug excreted unchanged in the urine ([1]; within 24 hours, oral and intravenous administration): 90%

Source: publication PMC4935531 (Journal of Acquired Immune Deficiency Syndromes (1999), 2016)
